According to patent US10144713B1, “Bis-cyclic guanidines as antibacterial agents” (UNIVERSITY OF SOUTH FLORIDA, priority 2017, dated 2018):

What was measured:
E. coli (ATCC 25922) = assay: MIC against E. coli; type: cell-based; details: Escherichia coli, ATCC25922; Gram −; 16 h, 37° C.
Experimental: (§1) Minimum Inhibitory Concentrations (MICs) Against Bacteria.
(§2) The antimicrobial activity of the compounds was tested on the following six bacteria strains: K. pneumoniae (ATCC 13383), P. aeruginosa (ATCC27853), E. coli (ATCC 25922), vancomycin-resistant Enterococcus faecalis(ATCC 700802), Methicillin-resistant S. aureus (MRSA, ATCC 33591), Methicillin-resistant S. epidermidis (MRSE, RP62A). The procedures were followed as reported previously (Hancock et al., Immunobiology 2006, 211, 315-322). Briefly, a single colony of each bacterium was inoculated in 3 mL TSB medium and incubated overnight at 37° C. Then the bacteria culture was diluted at 1:100 and the bacteria were allowed to grow to mid-logarithmic phase. Next, 50 μL of 2-fold serial dilutions of compounds (0.1-25 μg/mL) were added the 96-well plate containing aliquots of 50 μL of bacteria suspension (1×10^6 CFU/mL) in each well. The mixture was incubated at 37° C. for 16 h, and their absorption at 600 nm wavelength was read on a Biotek Synergy HT microtiter plate reader. […] The experiments were repeated at least three times with duplicates each time. HC50 means the concentration causing 50% hemolysis.

[1] = system: P. aeruginosa (ATCC27853); assay: MIC against P. aeruginosa; type: cell-based; details: Pseudomonas aeruginosa, ATCC27853; Gram −; 16 h, 37° C.
Experimental: as §1, §2

[2] = system: human red blood cells (hRBCs); assay: Hemolytic assay; type: cell-based
Experimental: The freshly drawn, K2EDTA treated human red blood cells (hRBCs) were washed with 1×PBS buffer, and centrifuged at 3500 rpm for 10 min. The step was repeated until the supernatant became clear. The supernatant was removed, and the RBCs were diluted into 5% v/v suspension. 50 μL of the suspension was incubated with 50 μL of compounds of different concentrations at 37° C. for 1 h. The mixture was centrifuged at 3500 rpm for 10 min. Subsequently, to 30 μL of the supernatant 100 μL PBS was added, and the absorbance of the mixture at 540 nm was read on a Biotek Synergy HT plate reader. The positive control was 2% Triton X-100, and the negative control was 1×PBS alone. The hemolysis activity was calculated by the formula % hemolysis=(Abssample−AbsPBS)/(AbsTriton−AbsPBS)×100%. The experiment was repeated at least three times with duplicates each time.

S. aureus = assay: Fluorescence microscopy (DAPI/PI) of bacterial membranes, S. aureus; type: cell-based; details: 2 h
Experimental: (§3) Fluorescence microscopy studies were conducted to evaluate the ability of compound 12 to compromise membranes of S. aureus (Gram-positive bacterium) and E. coli (Gram-negative bacterium). Fluorescent agent 4′,6-diamidino-2-phenylindole (DAPI) was used to stain membranes of bacterial cells with blue fluorescence regardless of cell viability, and the red fluorescence of propidium iodide (PI) due to the DNA intercalation was used to stain impaired membranes. After MRSA and E. Coli grew to mid-logarithmic phase, the compound 12 was incubated with the bacteria at 37° C. for 2 h. The mixture was then centrifuged at 5000 rpm for 15 min. The cell pellets were washed with the PBS buffer for three times, and incubated with PI ([…]) and DAPI (10 μg/mL) for 15 min sequentially on ice in the dark. The mixture was then centrifuged and the pellets were washed with the PBS buffer. Next, 10 μL of the samples were placed on chamber slides and observed under Zeiss Axio Image Zloptical microscope using 100× oil-immersion objective.

E. coli [3] = assay: Fluorescence microscopy (DAPI/PI) of bacterial membranes, E. coli; type: cell-based; details: 10 μg/mL, 2 h, 37° C.
Experimental: as §3

E. coli [4] = assay: Drug-resistance study, 14 passages, E. coli; type: cell-based; details: half-MIC exposure, 14 successive passages
Experimental: (§4) Bacterial resistance tests were conducted using compound 12. The compound was incubated with either MRSA or E. Coli in the well at the concentration of half-MIC (½ MIC, 10^6 CFU/ml) every day and tested for their activity through 14 successive passages.

E. coli biofilm = assay: Biofilm formation inhibition (crystal violet), E. coli; type: cell-based; details: Escherichia coli
Experimental: (§5) Bacteria in biofilms are known to tolerate antibiotic treatment and are thus more difficult to eradicate than planktonic cells. Biofilms formed by MRSA and E. coli have frustrated the treatment of persistent bacterial infections. Compound 12 was evaluated for its ability to inhibit biofilm formation of MRSA and E. coli. Overnight grown bacteria were inoculated into fresh 10% of MHII broth at a ratio of 1:100. 100 μL of inoculated culture was incubated with appropriated amounts of compound 12 in wells of 96-well plate. The plate was incubated at 37° C. for overnight. Optical density of each well was recorded at the wavelength of 600 nm and then the biofilm biomass was recorded by the crystal violet method. Biofilm biomass was presented as CV OD/OD of growth. Relative biofilm biomass values were normalized by the biomass value of control (no addition of compound). Experiments were conducted in triplicate and the data were presented as mean±STDEV.

[5] = system: Methicillin-resistant S. epidermidis (MRSE, RP62A); assay: MIC against MRSE; type: cell-based; details: Staphylococcus epidermidis, MRSE; Gram +; 16 h, 37° C.
Experimental: as §1, §2

MRSA = assay: Drug-resistance study, 14 passages, MRSA; type: cell-based, S. aureus; details: half-MIC exposure, 14 successive passages
Experimental: as §4

MRSA biofilm = assay: Biofilm formation inhibition (crystal violet), MRSA; type: cell-based, S. aureus
Experimental: as §5

[6] = system: six bacteria strains (K. pneumoniae, P. aeruginosa, E. coli, VRE, MRSA, MRSE); assay: Antimicrobial activity on the panel of six bacteria strains; type: cell-based
Experimental: as §1, §2

[7] = system: Methicillin-resistant S. aureus (MRSA, ATCC 33591); assay: MIC against MRSA; type: cell-based; details: Staphylococcus aureus; Gram +; 16 h, 37° C.
Experimental: as §1, §2

SMILES: CCCCCCN1C(=N)N(CC(=O)Nc2cccc(NC(=O)CN3C[C@H](Cc4ccccc4)N(CCCCCC)C3=N)c2)C[C@@H]1Cc1ccccc1 [Compound 12]
- MIC (E. coli (ATCC 25922)): 0.75 µg/mL
- MIC [1]: 4 µg/mL
- selectivity, hemolytic activity against MIC values of MRSA [2]: 1534 folds
- membrane integrity of S. aureus (PI red fluorescence) (S. aureus; 10 μg/mL, 37° C.): disrupted
- aggregation of S. aureus (S. aureus; in the presence of compound): significant aggregation
- membrane integrity of E. coli (PI red fluorescence) (E. coli [3]): disrupted
- MIC after 14 passages (E. coli [4]): virtually constant
- inhibition at 0.19 µg/mL (E. coli biofilm; 0.19 μg/mL): 38%
- inhibition at 0.39 µg/mL (E. coli biofilm; 0.39 μg/mL): ~90%
- MIC [5]: 0.75 µg/mL
- MIC after 14 passages (MRSA): virtually constant
- inhibition of biofilm formation (MRSA biofilm; 0.39 μg/mL): completely eradicated
- inhibition at 0.19 µg/mL (MRSA biofilm; Staphylococcus aureus, 0.19 μg/mL): 85%
- antibacterial activity against the tested bacteria (in words) [6]: potent and broad-spectrum activity
- MIC ([6]; read-out: MIC toward most strains): 0.75 µg/mL
- MIC [7]: 0.16 µg/mL
